{
  "source": "patent US4472424A",
  "about": "“Esters of 2-thenoylmercaptopropionylglycine with substituted hydroxybenzenes, process for their preparation and pharmaceutical compositions containing same” (Sigma-Tau Industrie Farmaceutiche Riunite S.p.A., priority 1981, dated 1984)",
  "key": {"[1]": {"test": "Mucolytic activity in vitro (thromboelastograph, Morandini et al.)", "set-up": "species or system human", "conditions": "1 ml of a 10% solution of test compound", "procedure": "The tests were carried out in vitro by using the method disclosed by Morandini et al. (Lotta contro 1a tubercolosi 47, n. 4, 1977). A thromboelastograph was used to follow the variations induced by the compounds of general formula (I) and acetylcysteine on the rheological properties of human sputum."}, "[2]": {"test": "Acute toxicity (LD50, Weil method), e.p. administration in mouse", "conditions": "in vivo, ip, Weil method N = 4 K = 4", "from_the_text": "LD50 of the compounds of formula (I) assessed with the Weil method (\"Tables for convenient calculation of median effective dose (LD50 or ED 50) and instructions in their use\", Biometrics, 249-253, 1952), by e.p. administration in mouse is shown in Table 1."}, "[3]": {"system": "cough-inducing irritation", "test": "Antitussive activity (citric acid aerosol induced cough)", "type": "in vivo, guinea pig", "conditions": "200 mg/Kg orally, one hour before test; for Number of coughs after treatment: 10 minutes exposure to 10% citric acid aerosol; for % Inhibition of coughs: before vs. after treatment", "procedure": "The cough-inducing irritation was studied in guinea pigs by exposing the experimental animals to an environment wherein a 10% citric acid solution was atomized by an aerosol device kept at a steady pressure with compressed air. The experimental animals were placed in a glass-walled chamber which was connected to an electrical recording apparatus suitable for counting coughs.\nThe period of exposure to the cough-inducing aerosol was 10 minutes. The experimental animals were subjected to a control test seven days before they were orally administered 200 mg/Kg of the compounds."}, "[4]": {"system": "bronchial secretion", "test": "Expectorant activity (bronchial secretion in anesthetized rabbits, Perry et al.)", "type": "in vivo, rabbit", "conditions": "20 to 40 mg", "procedure": "The tests were carried out on male rabbits, weighing 2-3 Kg, anesthetized with ethyl urethane, by following the method disclosed by Perry et al. (J. Pharm. Exp. Ther. 73, 65, 1941).\nEach cannula was connected to a feeding device which delivered a steady flow-rate of pre-heated air (36°-38° C.) at constant humidity (80%). At the lower end of each cannula, a graduated cylinder was fitted, wherein the bronchial secretion was collected. All of the animals breathed spontaneously and consequently they self-regulated the air intake suitable for normal respiration. After an hour following cannula insertion, the animals were administered orally (by stomach tube) the compounds of general formula (I) dissolved in distilled water at doses comprised between 20 and 40 mg. Each dose of drug was administered to 5 animals. The control animals (8) were given water only. The amount of secretion was determined after 1, 2 and 4 hours from administration."}, "[5]": {"conditions": "1 hour after oral administration"}, "[6]": {"conditions": "2 hours after oral administration"}, "[7]": {"conditions": "4 hours after oral administration"}},
  "data": [
    {"smiles": "CCCOC(=O)c1ccccc1OC(=O)CNC(=O)C(C)SC(=O)c1cccs1", "note": "(centres unmarked) [(5), propyl o-(2-thenoylmercaptopropionylglyciloxy) benzoate]", "values": [
      {"measurement": "Percentage drop ± s.e. of the tracing versus maximum peak (mucolytic activity index)", "setting": "[1]; dilution 1/30", "result": 78, "unit": "%"},
      {"measurement": "Percentage drop ± s.e. of the tracing versus maximum peak (mucolytic activity index)", "setting": "[1]; dilution 1/60", "result": 57, "unit": "%"},
      {"measurement": "LD50", "setting": "[2]", "result": 2080, "unit": "mg/kg"},
      {"measurement": "Number of coughs after treatment", "setting": "[3]", "result": 28, "unit": "coughs"},
      {"measurement": "% Inhibition of coughs", "setting": "[3]", "result": 49, "unit": "%"},
      {"measurement": "Percentage variations ± s.e. of bronchial secretion versus basal values", "setting": "[4]; [5]", "result": "+0.9 ± 0.06%"},
      {"measurement": "Percentage variations ± s.e. of bronchial secretion versus basal values", "setting": "[4]; [6]", "result": "+1.7 ± 0.05%"},
      {"measurement": "Percentage variations ± s.e. of bronchial secretion versus basal values", "setting": "[4]; [7]", "result": "+3.2 ± 0.06%"}
    ]},
    {"smiles": "CCOC(=O)c1ccccc1OC(=O)CNC(=O)C(C)SC(=O)c1cccs1", "note": "(centres unmarked) [(4), ethyl o-(2-thenoylmercaptopropionylglyciloxy) benzoate]", "values": [
      {"measurement": "Percentage drop ± s.e. of the tracing versus maximum peak (mucolytic activity index)", "setting": "[1]; dilution 1/30", "result": 82, "unit": "%"},
      {"measurement": "Percentage drop ± s.e. of the tracing versus maximum peak (mucolytic activity index)", "setting": "[1]; dilution 1/60", "result": 60, "unit": "%"},
      {"measurement": "LD50", "setting": "[2]", "result": 2150, "unit": "mg/kg"},
      {"measurement": "Number of coughs after treatment", "setting": "[3]", "result": 30, "unit": "coughs"},
      {"measurement": "% Inhibition of coughs", "setting": "[3]", "result": 52, "unit": "%"},
      {"measurement": "Percentage variations ± s.e. of bronchial secretion versus basal values", "setting": "[4]; [5]", "result": "+0.8 ± 0.03%"},
      {"measurement": "Percentage variations ± s.e. of bronchial secretion versus basal values", "setting": "[4]; [6]", "result": "+1.9 ± 0.06%"},
      {"measurement": "Percentage variations ± s.e. of bronchial secretion versus basal values", "setting": "[4]; [7]", "result": "+3.0 ± 0.04%"}
    ]},
    {"smiles": "CCCCOC(=O)c1ccccc1OC(=O)CNC(=O)C(C)SC(=O)c1cccs1", "note": "(centres unmarked) [(6), butyl o-(2-thenoylmercaptopropionylglyciloxy) benzoate]", "values": [
      {"measurement": "Percentage drop ± s.e. of the tracing versus maximum peak (mucolytic activity index)", "setting": "[1]; dilution 1/30", "result": 75, "unit": "%"},
      {"measurement": "Percentage drop ± s.e. of the tracing versus maximum peak (mucolytic activity index)", "setting": "[1]; dilution 1/60", "result": 55, "unit": "%"},
      {"measurement": "LD50", "setting": "[2]", "result": 1800, "unit": "mg/kg"},
      {"measurement": "Number of coughs after treatment", "setting": "[3]", "result": 25, "unit": "coughs"},
      {"measurement": "% Inhibition of coughs", "setting": "[3]", "result": 49, "unit": "%"},
      {"measurement": "Percentage variations ± s.e. of bronchial secretion versus basal values", "setting": "[4]; [5]", "result": "+0.5 ± 0.04%"},
      {"measurement": "Percentage variations ± s.e. of bronchial secretion versus basal values", "setting": "[4]; [6]", "result": "+1.0 ± 0.06%"},
      {"measurement": "Percentage variations ± s.e. of bronchial secretion versus basal values", "setting": "[4]; [7]", "result": "+1.9 ± 0.04%"}
    ]},
    {"smiles": "CC(=O)Nc1ccc(OC(=O)CNC(=O)C(C)SC(=O)c2cccs2)cc1", "note": "(centres unmarked) [(2), p-(2-thenoylmercaptopropionylglyciloxy) acetamido benzene]", "values": [
      {"measurement": "Percentage drop ± s.e. of the tracing versus maximum peak (mucolytic activity index)", "setting": "[1]; dilution 1/30", "result": 86, "unit": "%"},
      {"measurement": "Percentage drop ± s.e. of the tracing versus maximum peak (mucolytic activity index)", "setting": "[1]; dilution 1/60", "result": 65, "unit": "%"},
      {"measurement": "LD50", "setting": "[2]", "result": 1930, "unit": "mg/kg"},
      {"measurement": "Number of coughs after treatment", "setting": "[3]", "result": 30, "unit": "coughs"},
      {"measurement": "% Inhibition of coughs", "setting": "[3]", "result": 46, "unit": "%"},
      {"measurement": "Percentage variations ± s.e. of bronchial secretion versus basal values", "setting": "[4]; [5]", "result": "+0.8 ± 0.03%"},
      {"measurement": "Percentage variations ± s.e. of bronchial secretion versus basal values", "setting": "[4]; [6]", "result": "+1.2 ± 0.04%"},
      {"measurement": "Percentage variations ± s.e. of bronchial secretion versus basal values", "setting": "[4]; [7]", "result": "+2.5 ± 0.07%"}
    ]},
    {"smiles": "CC(=O)N[C@@H](CS)C(=O)O", "note": "[Acetylcysteine, acetylcysteine, reference compound]", "values": [
      {"measurement": "Percentage drop ± s.e. of the tracing versus maximum peak (mucolytic activity index)", "setting": "[1]; dilution 1/30", "result": 75, "unit": "%"},
      {"measurement": "Percentage drop ± s.e. of the tracing versus maximum peak (mucolytic activity index)", "setting": "[1]; dilution 1/60", "result": 22, "unit": "%"}
    ]},
    {"smiles": "CCCOC(=O)c1ccc(OC(=O)CNC(=O)C(C)SC(=O)c2cccs2)cc1", "note": "(centres unmarked) [(1), propyl p-(2-thenoylmercaptopropionylglyciloxy) benzoate]", "values": [
      {"measurement": "Percentage drop ± s.e. of the tracing versus maximum peak (mucolytic activity index)", "setting": "[1]; dilution 1/30", "result": 75, "unit": "%"},
      {"measurement": "Percentage drop ± s.e. of the tracing versus maximum peak (mucolytic activity index)", "setting": "[1]; dilution 1/60", "result": 60, "unit": "%"},
      {"measurement": "LD50", "setting": "[2]", "result": 1580, "unit": "mg/kg"},
      {"measurement": "Number of coughs after treatment", "setting": "[3]", "result": 39, "unit": "coughs"},
      {"measurement": "% Inhibition of coughs", "setting": "[3]", "result": 37, "unit": "%"},
      {"measurement": "Percentage variations ± s.e. of bronchial secretion versus basal values", "setting": "[4]; [5]", "result": "+0.9 ± 0.05%"},
      {"measurement": "Percentage variations ± s.e. of bronchial secretion versus basal values", "setting": "[4]; [6]", "result": "+2.1 ± 0.01%"},
      {"measurement": "Percentage variations ± s.e. of bronchial secretion versus basal values", "setting": "[4]; [7]", "result": "+3.8 ± 0.06%"}
    ]},
    {"smiles": "COC(=O)c1ccccc1OC(=O)CNC(=O)C(C)SC(=O)c1cccs1", "note": "(centres unmarked) [(3), methyl o-(2-thenoylmercaptopropionylglyciloxy) benzoate]", "values": [
      {"measurement": "Percentage drop ± s.e. of the tracing versus maximum peak (mucolytic activity index)", "setting": "[1]; dilution 1/30", "result": 85, "unit": "%"},
      {"measurement": "Percentage drop ± s.e. of the tracing versus maximum peak (mucolytic activity index)", "setting": "[1]; dilution 1/60", "result": 65, "unit": "%"},
      {"measurement": "LD50", "setting": "[2]", "result": 1780, "unit": "mg/kg"},
      {"measurement": "Number of coughs after treatment", "setting": "[3]", "result": 31, "unit": "coughs"},
      {"measurement": "% Inhibition of coughs", "setting": "[3]", "result": 49, "unit": "%"},
      {"measurement": "Percentage variations ± s.e. of bronchial secretion versus basal values", "setting": "[4]; [5]", "result": "+0.3 ± 0.05%"},
      {"measurement": "Percentage variations ± s.e. of bronchial secretion versus basal values", "setting": "[4]; [6]", "result": "+0.9 ± 0.05%"},
      {"measurement": "Percentage variations ± s.e. of bronchial secretion versus basal values", "setting": "[4]; [7]", "result": "+1.4 ± 0.08%"}
    ]}
  ]
}
